Assay in all cases: NCI anticancer screen, dose series, 48 h
In assay [1] the test system is 786-0 renal.
Assay [2] concerns ACHN renal.
The test system of assay [3] is HCT-116 colon.
The subject of assay [4] is HT29 colon.
Assay [5] concerns KM12 colon.
Assay [6] has as its system SF-268 CNS.
Assay [7] deals with SK-MEL-2 melanoma.
Assay [8] has as its system SNB-75 CNS.
In assay [9] the test system is SR leukemia.
For assay [10], the system named is UO-31 renal.

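Protocol summary: plate cells (96-well), add compound at 5 concentrations, incubate 48 h, interpolate endpoints linearly. The concentration for 50% growth inhibition is given as GI50. At the TGI there is no net growth.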

For the compound `COc1cc2c3c(n(CCCNCC(OC)OC)c(=O)c2cc1OC)-c1cc2c(cc1C3=O)OCO2`, the GI50 is 0.274 µM in assay [1]; 5.34 µM in [2]; 0.0172 µM in [3]; 4.99 µM in assay [4]; 2.14 µM in assay [5]; 1.05 µM in assay [6]. Moreover, the GI50 in [7] is > 49.1 µM; in [8], 17 µM; in assay [9], < 0.01 µM; in assay [10], 2.13 µM. Moreover, the TGI in assay [1] is 8.75 µM; in [2] it was > 37.4 µM; in [3] it was 1.31 µM; in assay [4], 32.2 µM; in assay [5] it was 34.6 µM; in [6] it was > 55.1 µM. The TGI was > 73.5 µM in assay [7], > 59.1 µM in assay [8] and 22.5 µM in assay [10].
For the compound `Cc1cc(NC(=O)NC(=O)c2ccccc2N)ccc1Oc1ncc(Br)cn1`, the TGI was 41.2 µM in assay [1]; > 100 µM in assay [2]; 8.15 µM in assay [3]; 0.258 µM in [4]; 54.9 µM in [5]; > 67.3 µM in assay [6]. The TGI in assay [7] is 0.481 µM; in assay [8], 37.7 µM; in assay [9], > 15.8 µM; in assay [10] it was > 59.6 µM.
`O=C1/C(=C/c2ccc([N+](=O)[O-])o2)Oc2ccc(Br)cc21`: the GI50 was 2.47 µM in assay [1]; 1.85 µM in assay [2]; 1.9 µM in assay [3]; 2.64 µM in [4]; 3.85 µM in assay [5]; 2.04 µM in assay [6]. The GI50 in assay [7] was 2.24 µM; in [8], 15.2 µM; in assay [9], 0.77 µM; in assay [10], 1.46 µM. Further, the TGI amounted to 5.29 µM in [1]; 3.77 µM in assay [2]; 3.46 µM in assay [3]; 5.78 µM in [4]; 13 µM in [5]; 4.16 µM in assay [6]. Further, the TGI is 4.43 µM in assay [7], 52.9 µM in assay [8], 5.52 µM in assay [9] and 3.02 µM in assay [10].
As for `NC(=O)c1cc([N+](=O)[O-])c(Cl)c([N+](=O)[O-])c1`, the GI50 is 1.96 µM in assay [1]; 1.87 µM in [2]; 1.91 µM in assay [3]; 2.58 µM in assay [4]; 4.69 µM in assay [5]; 4.66 µM in assay [6]. Besides, the GI50 is 13.7 µM in [7], 4.63 µM in [8], 1.89 µM in assay [9] and 1.77 µM in [10]. The TGI in assay [1] was 3.56 µM; in assay [2] it was 3.37 µM; in [3], 3.53 µM; in [4], 5.51 µM; in assay [5], 16.3 µM; in assay [6], 16.2 µM. The TGI in assay [7] was 27.8 µM; in assay [8] it was 17.8 µM; in [9], > 100 µM; in [10] it was 3.24 µM.
Take `C=C(C)C(=O)OC1CC2=CC(CC3(C)OC3C3OC(=O)C(=C)C13)OC2=O` (centres undefined): the TGI in [1] turned out to be 20.5 µM; in [2], 16.7 µM; in [3] it was 17.1 µM; in assay [4], 17.3 µM; in assay [5], 32.1 µM; in assay [6], 47.3 µM. Also, the TGI in assay [7] was found to be 26.4 µM; in [8] it was 28.5 µM; in [9] it was 15.7 µM; in assay [10], 26.2 µM.
As to `C[C@H]1[C@H](C)CC[C@]2(C(=O)N3CCN(C)CC3)CC[C@]3(C)C(=CC[C@@H]4[C@@]5(C)C/C(=C/c6cccnc6)C(=O)C(C)(C)[C@@H]5CC[C@]43C)[C@H]12`, the GI50 in assay [1] was 0.67 µM; in assay [2] it was 1.23 µM; in [3] it was 0.669 µM; in [4] it was 0.926 µM; in assay [5], 0.976 µM; in [6] it was 1.47 µM. The GI50 in assay [7] was 1.53 µM; in assay [8], 1.08 µM; in [9] it was 1.37 µM; in assay [10], 0.775 µM. The TGI in assay [1] was found to be 2 µM; in [2] it was 2.49 µM; in [3], 1.89 µM; in [4], 2.67 µM; in assay [5], 2.56 µM; in assay [6], 3.05 µM. Moreover, the TGI in assay [7] was 3.08 µM; in [8] it was 2.34 µM; in assay [9], > 100 µM; in [10], 2.16 µM.
For the compound `CN(C)c1ccc(-c2cc(-c3ccc(Nc4nc(Nc5ccccc5)nc(Nc5ccc(Cl)cc5)n4)cc3)nc(N)n2)cc1`, the GI50 in [1] was 6.32 µM; in assay [2], 5.88 µM; in [3], 3.51 µM; in assay [4], 3.27 µM; in [5], 3.06 µM; in [6], 6.69 µM. Besides, the GI50 was 7.18 µM in assay [7], 3.27 µM in [8], 1.39 µM in assay [9] and 2.69 µM in [10]. Besides, the TGI in [1] is 46 µM; in assay [2], > 100 µM; in assay [3], 15.2 µM; in assay [4], 12.7 µM; in [5] it was 13 µM; in [6], 56.4 µM. The TGI in assay [7] was 43.5 µM; in [8] it was 37.7 µM; in [9], 5.02 µM; in assay [10], > 100 µM.
For `O=C(CCCCCCSc1nc(-c2ccccc2)cc(-c2ccccc2)n1)NO`, the GI50 was 1.91 µM in assay [1]; 1.45 µM in assay [2]; 0.813 µM in [3]; 2.02 µM in assay [4]; 3.22 µM in [5]; 2.7 µM in assay [6]. The GI50 was 3.94 µM in [7], 1.7 µM in [8], 0.322 µM in [9] and 1.09 µM in [10]. The TGI amounted to 4.48 µM in assay [1]; 3.16 µM in assay [2]; 10.7 µM in [3]; 11.3 µM in assay [4]; 15.9 µM in assay [5]; 7.42 µM in assay [6]. Also, the TGI stood at 21 µM in assay [7], 14 µM in [8], 3.87 µM in [9] and 3.85 µM in [10].

These data come from PubChem BioAssay (NCI).
